# From PMC7337938 (2020)
# Legend:
# [1] = test system: Zsw81 (RNA, riboswitch) GGAUACAGGACUGGCGGAUUAGUGGAAGCAACCACGUGGACUGUAUCCGAAGAAAAGCCGACCGCCUGGGCAAAAAUUAG; experiment: 1H NMR titration, U42 imino intensity; conditions: 50 mM KCl, 25 mM potassium phosphate, 10 mM Mg2+; pH 6.2; RNA concentration free in fit, binding-competent fraction 43%
# [2] = test system: Zsw85 (RNA, riboswitch) GGAUACAGGACUGGCGGAUUAGUGGAAGCAACCACGUGGACUGUAUCCGAAGAAAAGCCGACCGCCUGGGCAAAAAUUAGCCCA; experiment: 1H NMR titration; conditions: 50 mM KCl, 25 mM potassium phosphate, 10 mM Mg2+; pH 6.2; up to 2 eq. ZMP
# [3] = test system: Zsw84 (RNA, riboswitch) GGAUACAGGACUGGCGGAUUAGUGGAAGCAACCACGUGGACUGUAUCCGAAGAAAAGCCGACCGCCUGGGCAAAAAUUAGCCC; experiment: 1H NMR titration; conditions: 50 mM KCl, 25 mM potassium phosphate, 10 mM Mg2+; pH 6.2; up to 2 eq. ZMP
# [4] = test system: Zsw77 (RNA, riboswitch) GGAUACAGGACUGGCGGAUUAGUGGAAGCAACCACGUGGACUGUAUCCGAAGAAAAGCCGACCGCCUGGGCAAAAA; experiment: 1H NMR titration, U42 imino intensity; conditions: 50 mM KCl, 25 mM potassium phosphate, 10 mM Mg2+; pH 6.2; RNA concentration free in fit, binding-competent fraction 70%
# [5] = test system: Zsw48+Zsw15 (RNA, riboswitch) GGAUACAGGACUGGCGGAUUAGUGGAAGCAACCACGUGGACUGUAUCCG/GCCGACCGCCUGGGC; experiment: 1H NMR; conditions: 50 mM KCl, 25 mM potassium phosphate, 10 mM Mg2+; pH 6.2; 100 μM RNA, 2 eq. ZMP; affinity lower than Zsw77
# [6] = test system: Zsw90 (RNA, riboswitch) GGAUACAGGACUGGCGGAUUAGUGGAAGCAACCACGUGGACUGUAUCCGAAGAAAAGCCGACCGCCUGGGCAAAAAUUAGCCCAGGCGG; experiment: 1H NMR titration; conditions: 50 mM KCl, 25 mM potassium phosphate, 10 mM Mg2+; pH 6.2; up to 2 eq. ZMP
# [7] = test system: Zsw82 (RNA, riboswitch) GGAUACAGGACUGGCGGAUUAGUGGAAGCAACCACGUGGACUGUAUCCGAAGAAAAGCCGACCGCCUGGGCAAAAAUUAGC; experiment: ITC and 1H NMR titration; conditions: 50 mM KCl, 25 mM potassium phosphate, 10 mM Mg2+ (NMR); pH 6.2; minor binding-competent population prevented curve fitting
# [8] = test system: Zsw81 (RNA, riboswitch) GGAUACAGGACUGGCGGAUUAGUGGAAGCAACCACGUGGACUGUAUCCGAAGAAAAGCCGACCGCCUGGGCAAAAAUUAG; experiment: ITC; conditions: K+ 50 mM KCl + 25 mM potassium phosphate; Mg2+ 10 mM MgCl2 (assumed from NMR prep); pH 6.2; 60 μM RNA; stoichiometry free, binding-competent fraction 13%
# [9] = test system: Zsw89 (RNA, riboswitch) GGAUACAGGACUGGCGGAUUAGUGGAAGCAACCACGUGGACUGUAUCCGAAGAAAAGCCGACCGCCUGGGCAAAAAUUAGCCCAGGCG; experiment: 1H NMR titration; conditions: 50 mM KCl, 25 mM potassium phosphate, 10 mM Mg2+; pH 6.2; up to 2 eq. ZMP
# [10] = test system: Zsw77 (RNA, riboswitch) GGAUACAGGACUGGCGGAUUAGUGGAAGCAACCACGUGGACUGUAUCCGAAGAAAAGCCGACCGCCUGGGCAAAAA; experiment: ITC; conditions: K+ 50 mM KCl + 25 mM potassium phosphate; Mg2+ 10 mM MgCl2 (assumed from NMR prep); pH 6.2; 60 μM RNA; stoichiometry free, binding-competent fraction 53%
# [11] = test system: Zsw86 (RNA, riboswitch) GGAUACAGGACUGGCGGAUUAGUGGAAGCAACCACGUGGACUGUAUCCGAAGAAAAGCCGACCGCCUGGGCAAAAAUUAGCCCAG; experiment: 1H NMR titration; conditions: 50 mM KCl, 25 mM potassium phosphate, 10 mM Mg2+; pH 6.2; up to 2 eq. ZMP
# [12] = test system: Zsw83 (RNA, riboswitch) GGAUACAGGACUGGCGGAUUAGUGGAAGCAACCACGUGGACUGUAUCCGAAGAAAAGCCGACCGCCUGGGCAAAAAUUAGCC; experiment: 1H NMR titration; conditions: 50 mM KCl, 25 mM potassium phosphate, 10 mM Mg2+; pH 6.2; 120 μM RNA; up to 2 eq. ZMP
# [13] = test system: Zsw87 (RNA, riboswitch) GGAUACAGGACUGGCGGAUUAGUGGAAGCAACCACGUGGACUGUAUCCGAAGAAAAGCCGACCGCCUGGGCAAAAAUUAGCCCAGG; experiment: 1H NMR titration; conditions: 50 mM KCl, 25 mM potassium phosphate, 10 mM Mg2+; pH 6.2; up to 2 eq. ZMP
# [14] = test system: Zsw101 (RNA, riboswitch) GGAUACAGGACUGGCGGAUUAGUGGAAGCAACCACGUGGACUGUAUCCGAAGAAAAGCCGACCGCCUGGGCAAAAAUUAGCCCAGGCGGUAUUUAUUUUU; experiment: 1H NMR; conditions: 50 mM KCl, 25 mM potassium phosphate, Mg2+; pH 6.2
# [15] = test system: Zsw91 (RNA, riboswitch) GGAUACAGGACUGGCGGAUUAGUGGAAGCAACCACGUGGACUGUAUCCGAAGAAAAGCCGACCGCCUGGGCAAAAAUUAGCCCAGGCGGU; experiment: ITC; conditions: K+ (50 mM KCl, 25 mM potassium phosphate); Mg2+ for ITC not stated; pH 6.2; 60 μM RNA, 600 μM ZMP in syringe
compound,measurement,setting,value
NC(=O)c1ncn([C@@H]2O[C@H](COP(=O)(O)O)[C@@H](O)[C@H]2O)c1N,dissociation constant,[1],2.58 µM
same,binding,[2],no
same,binding,[3],no
same,dissociation constant,[4],2.78 µM
same,binding,[5],yes
same,binding,[6],no
same,binding,[7],weak
same,dissociation constant,[8],0.54 µM
same,binding,[9],no
same,dissociation constant,[10],0.57 µM
same,binding,[11],no
same,binding,[12],no
same,binding,[13],no
same,binding,[14],no
same,binding,[15],no
